Values of other authors, collected in patent US12569481B2, “Methods of treatment for gastrointestinal motility disorders” (Vanderbilt University, priority 2020, dated 2026).

How the values were obtained:
[1] = molecular target: cardiac late sodium current (late INa) (Homo sapiens, UniProt Q14524)
[2] = molecular target: KCNH2-encoded hERG K+ channels (Homo sapiens, UniProt Q12809); settings: channels found in cardiac muscle and intestinal smooth muscle
[3] = molecular target: T1, sodium current in human colon SMCs (Homo sapiens, UniProt Q14524)
T1 construct: sodium current in human colon SMCs; endogenous in cells; host or cells: human colon smooth muscle cells (SMCs)
T1 sequence (Q14524 whole entry): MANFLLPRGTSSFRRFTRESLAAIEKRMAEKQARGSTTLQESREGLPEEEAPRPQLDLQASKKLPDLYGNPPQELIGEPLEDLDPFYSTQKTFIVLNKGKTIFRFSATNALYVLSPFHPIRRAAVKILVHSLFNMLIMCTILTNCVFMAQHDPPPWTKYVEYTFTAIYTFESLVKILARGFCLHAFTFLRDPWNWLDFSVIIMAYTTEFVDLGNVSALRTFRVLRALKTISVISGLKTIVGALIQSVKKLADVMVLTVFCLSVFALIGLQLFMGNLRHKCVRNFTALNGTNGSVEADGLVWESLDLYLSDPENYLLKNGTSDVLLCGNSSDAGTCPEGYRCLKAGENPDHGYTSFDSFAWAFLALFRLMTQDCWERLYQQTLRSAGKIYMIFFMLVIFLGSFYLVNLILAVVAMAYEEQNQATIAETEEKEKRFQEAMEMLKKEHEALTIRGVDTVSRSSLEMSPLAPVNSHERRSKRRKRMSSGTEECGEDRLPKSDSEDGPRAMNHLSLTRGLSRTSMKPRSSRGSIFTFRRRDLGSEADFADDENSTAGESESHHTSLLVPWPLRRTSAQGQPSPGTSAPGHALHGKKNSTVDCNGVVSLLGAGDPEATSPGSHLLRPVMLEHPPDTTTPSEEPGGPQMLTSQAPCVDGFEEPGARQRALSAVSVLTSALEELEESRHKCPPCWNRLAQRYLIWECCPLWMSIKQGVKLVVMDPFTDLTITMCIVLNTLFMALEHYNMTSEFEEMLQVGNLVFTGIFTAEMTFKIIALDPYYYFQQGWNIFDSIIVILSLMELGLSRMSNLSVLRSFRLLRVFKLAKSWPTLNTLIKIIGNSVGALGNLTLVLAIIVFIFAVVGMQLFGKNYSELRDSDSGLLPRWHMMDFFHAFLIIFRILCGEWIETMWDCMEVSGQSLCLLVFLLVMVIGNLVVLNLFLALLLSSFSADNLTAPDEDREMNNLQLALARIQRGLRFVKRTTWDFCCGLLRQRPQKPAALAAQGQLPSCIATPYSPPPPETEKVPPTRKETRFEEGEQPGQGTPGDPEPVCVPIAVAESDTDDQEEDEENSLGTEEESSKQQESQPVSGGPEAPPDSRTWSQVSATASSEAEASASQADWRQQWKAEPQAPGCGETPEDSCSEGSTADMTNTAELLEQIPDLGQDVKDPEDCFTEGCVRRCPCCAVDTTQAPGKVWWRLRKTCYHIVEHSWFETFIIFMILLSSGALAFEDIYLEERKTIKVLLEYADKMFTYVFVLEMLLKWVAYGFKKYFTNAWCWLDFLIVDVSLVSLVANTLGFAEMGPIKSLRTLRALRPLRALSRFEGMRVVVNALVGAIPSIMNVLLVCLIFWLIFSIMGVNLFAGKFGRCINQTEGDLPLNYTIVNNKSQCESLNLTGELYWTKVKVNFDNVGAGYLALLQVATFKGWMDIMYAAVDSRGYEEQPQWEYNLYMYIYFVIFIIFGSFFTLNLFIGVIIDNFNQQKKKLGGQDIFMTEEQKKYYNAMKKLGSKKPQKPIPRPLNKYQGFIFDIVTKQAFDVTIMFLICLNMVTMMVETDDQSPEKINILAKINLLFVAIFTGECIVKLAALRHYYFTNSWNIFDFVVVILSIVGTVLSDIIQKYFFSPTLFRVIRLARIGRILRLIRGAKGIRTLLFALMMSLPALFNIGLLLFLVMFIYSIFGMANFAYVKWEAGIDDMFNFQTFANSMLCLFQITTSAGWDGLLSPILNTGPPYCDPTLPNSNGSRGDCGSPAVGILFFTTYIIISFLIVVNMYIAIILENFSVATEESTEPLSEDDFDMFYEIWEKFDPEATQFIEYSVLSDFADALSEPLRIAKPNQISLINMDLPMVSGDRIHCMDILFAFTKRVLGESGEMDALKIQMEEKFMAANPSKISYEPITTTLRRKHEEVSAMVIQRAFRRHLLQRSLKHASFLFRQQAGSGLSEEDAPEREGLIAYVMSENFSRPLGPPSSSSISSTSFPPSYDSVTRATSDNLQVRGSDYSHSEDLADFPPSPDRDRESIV

[4] = system: human colon muscle strips
[5] = not given; remark: listed apart in the source
[6] = room temperature; over-encapsulated 500 mg extended release tablets

Chain of cardiac late sodium current (late INa) (Q14524 whole entry): as above

SMILES: COc1ccccc1OCC(O)CN1CCN(CC(=O)Nc2c(C)cccc2C)CC1 (centres unmarked) [Ranolazine]
- selectivity for late INa vs peak INa ([1]; late INa vs peak INa): nine
- inhibition of cardiac late sodium current (late INa) ([1]; residual Na+ flowing after peak INa during an action potential): inhibitor
- block of KCNH2-encoded hERG K+ channels [2]: block
- effect on peak amplitude and mechanosensitivity of sodium current [3]: blocks both peak amplitude and mechanosensitivity
- effect on contractility [4]: decreases contractility
- metabolism (cytochrome P-450 3A enzyme (CYP3A) pathway in the liver): rapidly metabolized
- half-life (in vivo): seven
- ingested ranolazine excreted in the urine (ingested, urine): At least 70%
- patients experiencing the most common side effects ([5]; dizziness, nausea, constipation, and headache): less than 2%
- safety and tolerability ([5]; used properly and not concurrently with contraindicated drugs): safe and well-tolerated
- storage time [6]: up to 12 months
